This is an account of results in patent publication US10913727B2, “Modulators of the integrated stress pathway” (Calico Life Sciences LLC, priority 2016, dated 2021).

This experiment concerns HEK293T cells carrying the ATF4 luciferase reporter. Briefly: ATF4-Luc assay, in vitro model of Vanishing Cell White Matter Disease (VWMD). Format: cell-based. To be noted: Homo sapiens, HEK-293T, 1 μg/mL tunicamycin, 7 hours, One Glo luminescence. Put shortly: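 Stable HEK293T line with human ATF4 5′-UTR–firefly luciferase reporter treated with 1 μg/mL tunicamycin plus 200 nM compound for 7 h. Luminescence read; EC50 derived.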
Broadly, the EC50 is the concentration needed to bring the measured effect to its halfway point. In the case of `CCc1cc(C(=O)NC23CCC(NC(=O)COc4ccc(Cl)c(Cl)c4)(CC2)[C@@H](O)C3)on1` [Compound 694, N-{(3S)-4-[2-(3,4-dichlorophenoxy)acetamido]-3-hydroxybicyclo[2.2.2]octan-1-yl}-3-ethyl-1,2-oxazole-5-carboxamide], the EC50 is < 50 nM.

Regarding `O=C(COc1ccc(Cl)c(F)c1)NC12CCC(NC(=O)c3ccsn3)(CC1)C[C@@H]2O` [Compound 695, N-{(3S)-4-[2-(4-chloro-3-fluorophenoxy)acetamido]-3-hydroxybicyclo[2.2.2]octan-1-yl}-1,2-thiazole-3-carboxamide], the EC50 was < 50 nM.

Take `CCc1ccnc(C(=O)NC23CC(NC(=O)COc4ccc(Cl)c(Cl)c4)(C2)C3)c1` [Compound 696, N-{3-[2-(3,4-dichlorophenoxy)acetamido]bicyclo[1.1.1]pentan-1-yl}-4-ethylpyridine-2-carboxamide]: the EC50 fell in the range of 50 to 250 nM.

Take `O=C(COc1ccc(Cl)c(Cl)c1)NC12CC(NC(=O)c3nc(C4CC4)cs3)(C1)C2` [Compound 697, 4-cyclopropyl-N-{3-[2-(3,4-dichlorophenoxy)acetamido]bicyclo[1.1.1]pentan-1-yl}-1,3-thiazole-2-carboxamide]: the 50% effective concentration (EC50) was < 50 nM.

On to `CCc1nc(C(=O)NC23CC(NC(=O)COc4ccc(Cl)c(Cl)c4)(C2)C3)cs1` [Compound 698, N-{3-[2-(3,4-dichlorophenoxy)acetamido]bicyclo[1.1.1]pentan-1-yl}-2-ethyl-1,3-thiazole-4-carboxamide], for which the EC50 was < 50 nM.

Take `CCc1nc(C(=O)NC23CC(NC(=O)COc4ccc5c(c4)OC(F)(F)O5)(C2)C3)cs1` [Compound 699, N-(3-{2-[(2,2-difluoro-2H-1,3-benzodioxol-5-yl)oxy]acetamido}bicyclo[1.1.1]pentan-1-yl)-2-ethyl-1,3-thiazole-4-carboxamide]: the EC50 is 250 to 1000 nM.

In the case of `CCc1ccc(C(=O)NC23CC(NC(=O)COc4ccc(Cl)c(Cl)c4)(C2)C3)nc1` [Compound 700, N-{3-[2-(3,4-dichlorophenoxy)acetamido]bicyclo[1.1.1]pentan-1-yl}-5-ethylpyridine-2-carboxamide], the EC50 was < 50 nM.

Regarding `Cc1nc(C(=O)NC23CCC(NC(=O)COc4ccc(Cl)c(Cl)c4)(CC2)[C@@H](O)C3)cs1` [Compound 701, N-{(3S)-4-[2-(3,4-dichlorophenoxy)acetamido]-3-hydroxybicyclo[2.2.2]octan-1-yl}-2-methyl-1,3-thiazole-4-carboxamide], the EC50 lay in the range of 50 to 250 nM.

`Cc1nc(C(=O)NC23CCC(NC(=O)COc4ccc(Cl)c(Cl)c4)(CC2)[C@@H](O)C3)n[nH]1` [Compound 702, N-{(3S)-4-[2-(3,4-dichlorophenoxy)acetamido]-3-hydroxybicyclo[2.2.2]octan-1-yl}-5-methyl-1H-1,2,4-triazole-3-carboxamide]: the EC50 is < 50 nM.

For the molecule `O=C(COc1ccc(Cl)c(Cl)c1)NC12CCC(NC(=O)c3cnc(C(F)F)cn3)(CC1)C[C@@H]2O` [Compound 703, N-{(3S)-4-[2-(3,4-dichlorophenoxy)acetamido]-3-hydroxybicyclo[2.2.2]octan-1-yl}-5-(difluoromethyl)pyrazine-2-carboxamide], the EC50 was < 50 nM.

For `O=C(COc1ccc(Cl)c(F)c1)NC12CCC(NC(=O)c3cc(C(F)(F)F)no3)(CC1)C[C@@H]2O` [Compound 704, N-{(3S)-4-[2-(4-chloro-3-fluorophenoxy)acetamido]-3-hydroxybicyclo[2.2.2]octan-1-yl}-3-(trifluoromethyl)-1,2-oxazole-5-carboxamide], the EC50 is < 50 nM.

For `CC(C)(C)c1cnc(C(=O)NC23CCC(NC(=O)COc4ccc(Cl)c(F)c4)(CC2)[C@@H](O)C3)cn1` [Compound 705, 5-tert-butyl-N-{(3S)-4-[2-(4-chloro-3-fluorophenoxy)acetamido]-3-hydroxybicyclo[2.2.2]octan-1-yl}pyrazine-2-carboxamide], the EC50 was > 2000 nM.

Consider `Cc1cc(C(=O)N(C)C23CCC(NC(=O)COc4ccc(Cl)c(F)c4)(CC2)[C@@H](O)C3)on1` [Compound 706, N-{(3S)-4-[2-(4-chloro-3-fluorophenoxy)acetamido]-3-hydroxybicyclo[2.2.2]octan-1-yl}-N,3-dimethyl-1,2-oxazole-5-carboxamide], for which the EC50 was < 50 nM.

On to `COc1cc(C(=O)NC23CCC(NC(=O)COc4ccc(Cl)c(F)c4)(C2)C3)on1` [Compound 707, N-{4-[2-(4-chloro-3-fluorophenoxy)acetamido]bicyclo[2.1.1]hexan-1-yl}-3-methoxy-1,2-oxazole-5-carboxamide], for which the EC50 fell in the range of 250 to 1000 nM.

Take `CCc1cnc(C(=O)NC23CC(NC(=O)COc4ccc(Cl)c(F)c4)(C2)C3)cn1` [Compound 708, N-{3-[2-(4-chloro-3-fluorophenoxy)acetamido]bicyclo[1.1.1]pentan-1-yl}-5-ethylpyrazine-2-carboxamide]: the EC50 was in the range of 50 to 250 nM.

`COc1cc(C(=O)NC23CC(NC(=O)COc4ccc(Cl)c(Cl)c4)(C2)C3)on1` [Compound 709, N-{3-[2-(3,4-dichlorophenoxy)acetamido]bicyclo[1.1.1]pentan-1-yl}-3-methoxy-1,2-oxazole-5-carboxamide]: the EC50 lay in the range of 50 to 250 nM.

`Cc1cc(C(=O)NC23CCC(NC(=O)COc4ccc(Cl)c(F)c4)(C2)C3)sn1` [Compound 710, N-{4-[2-(4-chloro-3-fluorophenoxy)acetamido]bicyclo[2.1.1]hexan-1-yl}-3-methyl-1,2-thiazole-5-carboxamide]: the EC50 was 250 to 1000 nM.

On to `CCc1cnc(C(=O)NC23CC(NC(=O)COc4ccc(Cl)c(Cl)c4)(C2)C3)cn1` [Compound 711, N-{3-[2-(3,4-dichlorophenoxy)acetamido]bicyclo[1.1.1]pentan-1-yl}-5-ethylpyrazine-2-carboxamide], for which the EC50 was < 50 nM.

Take `CCc1cnc(C(=O)NC23CCC(NC(=O)COc4ccc(Cl)c(F)c4)(C2)C3)cn1` [Compound 712, N-{4-[2-(4-chloro-3-fluorophenoxy)acetamido]bicyclo[2.1.1]hexan-1-yl}-5-ethylpyrazine-2-carboxamide]: the EC50 was in the range of 250 to 1000 nM.

Turning to `Cn1ccc(C(=O)NC23CC(NC(=O)COc4ccc(Cl)c(Cl)c4)(C2)C3)n1` [Compound 713, N-{3-[2-(3,4-dichlorophenoxy)acetamido]bicyclo[1.1.1]pentan-1-yl}-1-methyl-1H-pyrazole-3-carboxamide], the EC50 is 50 to 250 nM.

Regarding `O=C(COc1ccc(Cl)c(F)c1)NC12CC(Nc3cncc(C4CC4)n3)(C1)C2` [Compound 714, 2-(4-chloro-3-fluorophenoxy)-N-{3-[(6-cyclopropylpyrazin-2-yl)amino]bicyclo[1.1.1]pentan-1-yl}acetamide], the EC50 was in the range of 250 to 1000 nM.

Regarding `O=C(COc1ccc(Cl)c(Cl)c1)NC12CC(NC(=O)c3ccnc(CO)c3)(C1)C2` [Compound 715, N-{3-[2-(3,4-dichlorophenoxy)acetamido]bicyclo[1.1.1]pentan-1-yl}-2-(hydroxymethyl)pyridine-4-carboxamide], the EC50 lay within 1000 to 2000 nM.

On to `O=C(COc1ccc(Cl)c(Cl)c1)NC12CC(NC(=O)c3cc(OC(F)F)ccn3)(C1)C2` [Compound 716, N-{3-[2-(3,4-dichlorophenoxy)acetamido]bicyclo[1.1.1]pentan-1-yl}-4-(difluoromethoxy)pyridine-2-carboxamide], for which the EC50 lay within 250 to 1000 nM.

Consider `O=C(COc1ccc2c(c1)OC(F)(F)O2)NC12CC(NC(=O)c3cnc(C4CC4)o3)(C1)C2` [Compound 717, 2-cyclopropyl-N-(3-{2-[(2,2-difluoro-2H-1,3-benzodioxol-5-yl)oxy]acetamido}bicyclo[1.1.1]pentan-1-yl)-1,3-oxazole-5-carboxamide], for which the EC50 lay in the range of 250 to 1000 nM.

`O=C(COc1ccc(Cl)c(F)c1)NC12CC(NC(=O)c3ccc(CO)nc3)(C1)C2` [Compound 718, N-{3-[2-(4-chloro-3-fluorophenoxy)acetamido]bicyclo[1.1.1]pentan-1-yl}-6-(hydroxymethyl)pyridine-3-carboxamide]: the EC50 fell in the range of 250 to 1000 nM.

In the case of `O=C(COc1ccc(Cl)c(Cl)c1)NC12CC(NC(=O)c3ccc(CO)nc3)(C1)C2` [Compound 719, N-{3-[2-(3,4-dichlorophenoxy)acetamido]bicyclo[1.1.1]pentan-1-yl}-6-(hydroxymethyl)pyridine-3-carboxamide], the EC50 was in the range of 1000 to 2000 nM.

Take `N#Cc1cnc(NC23CC(NC(=O)COc4ccc(Cl)c(F)c4)(C2)C3)cn1` [Compound 720, 2-(4-chloro-3-fluorophenoxy)-N-{3-[(5-cyanopyrazin-2-yl)amino]bicyclo[1.1.1]pentan-1-yl}acetamide]: the EC50 was > 2000 nM.

Regarding `O=C(COc1ccc(Cl)c(F)c1)NC12CC(Nc3ccnc(N4CCOCC4)n3)(C1)C2` [Compound 721, 2-(4-chloro-3-fluorophenoxy)-N-(3-{[2-(morpholin-4-yl)pyrimidin-4-yl]amino}bicyclo[1.1.1]pentan-1-yl)acetamide], the EC50 is > 2000 nM.

For the molecule `O=C(COc1ccc(Cl)c(F)c1)NC12CC(Nc3nccn4nccc34)(C1)C2` [Compound 722, 2-(4-chloro-3-fluorophenoxy)-N-{3-[(pyrazolo[1,5-a]pyrazin-4-yl)amino]bicyclo[1.1.1]pentan-1-yl}acetamide], the EC50 fell in the range of 50 to 250 nM.

In the case of `O=C(COc1ccc(Cl)c(F)c1)NC12CC(NC(=O)c3cnc4sccc4c3)(C1)C2` [Compound 723, N-{3-[2-(4-chloro-3-fluorophenoxy)acetamido]bicyclo[1.1.1]pentan-1-yl}thieno[2,3-b]pyridine-5-carboxamide], the EC50 was in the range of 250 to 1000 nM.

Turning to `O=C(COc1ccc(Cl)c(F)c1)NC12CC(NC(=O)c3cnn(C(F)F)c3)(C1)C2` [Compound 724, N-{3-[2-(4-chloro-3-fluorophenoxy)acetamido]bicyclo[1.1.1]pentan-1-yl}-1-(difluoromethyl)-1H-pyrazole-4-carboxamide], the EC50 was 250 to 1000 nM.

Consider `O=C(COc1ccc(Cl)c(F)c1)NC12CC(Nc3cnccn3)(C1)C2` [Compound 725, 2-(4-chloro-3-fluorophenoxy)-N-{3-[(pyrazin-2-yl)amino]bicyclo[1.1.1]pentan-1-yl}acetamide], for which the EC50 is 1000 to 2000 nM.
